The source of these data is ChEMBL document CHEMBL1201862, “PubChem BioAssay data set” (2004).

Among the test systems are A549; CCRF-CEM; EKVX; HCT-116; HCT-15; LOX IMVI; M19-MEL; MOLT-4; RXF 393; SF-539; SK-MEL-2; SK-OV-3; SNB-75; UACC-257; UACC-62; RPMI-8226; Hs-578T; MCF7; MDA-MB-231; MDA-MB-435.
Holding throughout (test): inhibition of tumour cell growth, NCI panel, 48 h

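All cell lines were grown in 96-well plates and treated with compound for 48 hours. GI50: concentration for 50% inhibition of growth.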 Activity calls are given as the source filed them. Cut-off read from the data, not from the text of the source: active = GI50 up to about 1.1 µM and inactive = higher.

For `NC(=O)Cn1c(=O)[nH]c(=O)c2[nH]cnc21`, the GI50 in the assay on A549 is > 100 µM (inactive); in the assay with CCRF-CEM, > 100 µM (inactive); in the assay with EKVX, > 100 µM (inactive); with HCT-116 it was > 100 µM (inactive); with HCT-15 it was greater than 100 µM; with LOX IMVI, > 100 µM (inactive). The GI50 with M19-MEL, in the assay on MOLT-4, in the assay with RXF 393, with SF-539, in the assay with SK-MEL-2 and in the assay on SK-OV-3 was > 100 µM (inactive) in each case. In addition, the GI50 in the assay with SNB-75, in the assay with UACC-257 and in the assay with UACC-62 was > 100 µM (inactive) throughout.

Regarding `O=c1[nH]c(=O)n([C@H]2C[C@@H](CO)[C@@H](O)C2)cc1I`, the GI50 is > 100 µM (inactive) in the assay with A549; > 100 µM (inactive) in the assay with CCRF-CEM; > 100 µM (inactive) in the assay on EKVX; > 100 µM (inactive) with HCT-116; greater than 100 µM with HCT-15; > 100 µM (inactive) with LOX IMVI. In addition, the GI50 in the assay with M19-MEL, in the assay with MOLT-4, with RPMI-8226, with SF-539, with SK-MEL-2 and in the assay on SK-OV-3 was > 100 µM (inactive) throughout. Further, the GI50 was 91.6 µM (inactive) in the assay with SNB-75, > 100 µM (inactive) with UACC-257 and > 100 µM (inactive) in the assay on UACC-62.

For the compound `O=C1NCC2=C1CCC1c3ccccc3CCN21` (configuration not stated), the GI50 is > 100 µM (inactive) with A549; > 100 µM (inactive) in the assay with CCRF-CEM; > 100 µM (inactive) with EKVX; > 100 µM (inactive) in the assay with HCT-116; greater than 100 µM in the assay with HCT-15; > 100 µM (inactive) in the assay on LOX IMVI. Also, the GI50 in the assay on M19-MEL, in the assay on MOLT-4, in the assay with RXF 393, in the assay with SF-539, with SK-MEL-2 and in the assay with SK-OV-3 was > 100 µM (inactive) each time. Besides, the GI50 with SNB-75, in the assay on UACC-257 and in the assay on UACC-62 was > 100 µM (inactive) each time.

Take `O=C(O)CNC(=O)c1ccccc1O` [SALICYLURIC ACID]: the GI50 is > 100 µM (inactive) in the assay with A549; > 100 µM (inactive) with CCRF-CEM; > 100 µM (inactive) in the assay on EKVX; > 100 µM (inactive) with HCT-116; greater than 100 µM in the assay on HCT-15; > 100 µM (inactive) in the assay on Hs-578T. The GI50 in the assay with LOX IMVI, in the assay with MCF7, in the assay with MDA-MB-231, with MDA-MB-435, with MOLT-4 and in the assay with RPMI-8226 was > 100 µM (inactive) in each case. Moreover, the GI50 with RXF 393, with SF-539, in the assay on SK-MEL-2, with SK-OV-3, with SNB-75 and in the assay with UACC-257 was > 100 µM (inactive) throughout. Moreover, the GI50 with UACC-62 is > 100 µM (inactive).

For the compound `O=c1[nH]c2cc3cccnc3c(Cl)c2nc1C(F)(F)F`, the GI50 in the assay on A549 is 41.4 µM (inactive); in the assay with CCRF-CEM it was 28.1 µM (inactive); in the assay on EKVX, 9.91 µM (inactive); in the assay on HCT-116, 43.5 µM (inactive); in the assay on HCT-15 it was 44.5 µM; in the assay with Hs-578T it was 58.1 µM (inactive). In addition, the GI50 is 32.4 µM (inactive) with LOX IMVI; 28.3 µM (inactive) in the assay with MCF7; 30.3 µM (inactive) with MDA-MB-231; 33.7 µM (inactive) in the assay with MDA-MB-435; 23.6 µM (inactive) in the assay with MOLT-4; 26.5 µM (inactive) with RPMI-8226. Also, the GI50 was 46.7 µM (inactive) in the assay on RXF 393; 40.6 µM (inactive) in the assay on SF-539; 48.2 µM (inactive) with SK-MEL-2; 57.3 µM (inactive) in the assay with SK-OV-3; 27.5 µM (inactive) in the assay with SNB-75; 27.1 µM (inactive) with UACC-257. Also, in the assay with UACC-62, the GI50 was 22 µM (inactive).

Regarding `COc1cc2nc3n(c2cc1OC)C(O)c1c(Cl)nc(SC)nc1S3` (configuration not stated), the GI50 in the assay with A549 was 5.08 µM (inactive); in the assay on CCRF-CEM, 1.17 µM (inactive); in the assay on EKVX, 15.4 µM (inactive); in the assay with HCT-116, 2.46 µM (inactive); with HCT-15 it was 2.64 µM; in the assay with Hs-578T it was 2.77 µM (inactive). The GI50 with LOX IMVI is 1.7 µM (inactive); in the assay on MCF7, 3.36 µM (inactive); with MDA-MB-231, 4.42 µM (inactive); with MDA-MB-435, 4.01 µM (inactive); in the assay on MOLT-4 it was 1.98 µM (inactive); in the assay with RPMI-8226, 2.16 µM (inactive). Moreover, the GI50 was 2.3 µM (inactive) in the assay with RXF 393; 2.4 µM (inactive) in the assay with SF-539; 2 µM (inactive) in the assay on SK-MEL-2; 3.59 µM (inactive) with SK-OV-3; 4.47 µM (inactive) with SNB-75; 13.1 µM (inactive) in the assay on UACC-257. Moreover, the GI50 with UACC-62 is 2.19 µM (inactive).

With `O=C(/C=C/c1ccco1)c1ccc(NCc2nc3ccccc3[nH]2)cc1`, the GI50 is 13 µM (inactive) with CCRF-CEM; 14.6 µM (inactive) in the assay with EKVX; 15 µM in the assay with HCT-15; 12.2 µM (inactive) in the assay with LOX IMVI; 14.9 µM (inactive) with M19-MEL; 10.4 µM (inactive) in the assay on MOLT-4. Moreover, the GI50 with SF-539 was 18 µM (inactive); with SK-MEL-2, 19.1 µM (inactive); with SK-OV-3, 18.3 µM (inactive); with SNB-75, 15.8 µM (inactive); in the assay on UACC-257 it was 11.1 µM (inactive); with UACC-62 it was 14 µM (inactive).

Regarding `COc1ccc(-n2c(Cn3nnc(-c4cccnc4)n3)nn(C3OC(COC(=O)c4ccccc4)C(OC(=O)c4ccccc4)C3OC(=O)c3ccccc3)c2=S)cc1` (configuration not stated), the GI50 in the assay with A549 was > 100 µM (inactive); with CCRF-CEM, > 100 µM (inactive); with EKVX it was 39.4 µM (inactive); with HCT-116 it was > 100 µM (inactive); in the assay with HCT-15, greater than 100 µM; with Hs-578T, > 100 µM (inactive). The GI50 in the assay on LOX IMVI is > 100 µM (inactive); in the assay with MCF7, > 100 µM (inactive); in the assay with MDA-MB-231 it was 49 µM (inactive); with MDA-MB-435 it was > 100 µM (inactive); with MOLT-4, > 100 µM (inactive); in the assay with RPMI-8226, > 100 µM (inactive). For the same compound, the GI50 in the assay on RXF 393, with SF-539, in the assay with SK-MEL-2, with SK-OV-3, in the assay with SNB-75 and in the assay on UACC-257 was > 100 µM (inactive) in each case. Further, the GI50 in the assay with UACC-62 was > 100 µM (inactive).

`CCC(C)N1CN(c2ccccc2)C2(CCN(CCCC3(c4ccc(F)cc4)OCCO3)CC2)C1=O` (configuration not stated): the GI50 with A549 was 7.73 µM (inactive); in the assay with CCRF-CEM, 3.6 µM (inactive); with EKVX it was 6.14 µM (inactive); in the assay on HCT-116 it was 11.9 µM (inactive); in the assay with HCT-15, 4.75 µM; in the assay with Hs-578T, 6.15 µM (inactive). The GI50 is 7.73 µM (inactive) in the assay with LOX IMVI; 3.3 µM (inactive) with MCF7; 13.4 µM (inactive) in the assay on MDA-MB-231; 18.8 µM (inactive) in the assay with MDA-MB-435; 2.61 µM (inactive) in the assay with MOLT-4; 1.89 µM (inactive) with RPMI-8226. Also, the GI50 was 13 µM (inactive) in the assay on RXF 393; 5.5 µM (inactive) with SF-539; 11.9 µM (inactive) with SK-MEL-2; 21 µM (inactive) in the assay on SK-OV-3; 6.05 µM (inactive) in the assay on SNB-75; 1.98 µM (inactive) with UACC-257. For the same compound, the GI50 with UACC-62 was 23.3 µM (inactive).
